Legend:
[1] = Nitroxide concentration measurement by EPR in mouse blood and tissue; assay type: in vivo; conditions: mice
Procedure: Electron paramagnetic resonance (EPR) spectroscopy was used to determine residual levels of nitroxide in mouse tissue. Blood samples or tissue samples were diluted with 0.5 ml phosphate buffer (40 mM, pH 7.4) or water, inserted into a flexible capillary placed in a quartz tube installed within the EPR spectrometer cavity and assayed for residual nitroxide. A similar procedure was used to determine the residual nitroxide in tissue homogenates of various organs, which were corrected for blood contamination spectrophotometrically by following the absorption of oxyhemoglobin at 400-600 nm. Measured EPR signals were compared to those of a nitroxide standard solution.
In order to determine total hydroxylamine and nitroxide concentrations, 2 mM K3Fe(CN)6 was added to samples in order to oxidize hydroxylamines to the respective nitroxide, and the nitroxide level was determined by EPR spectroscopy as described hereinabove.
Control and experimental groups contained 10 mice each. The effects of the nitroxides were investigated by feeding the mice ad libitum a diet of nitroxide-containing chow (1 weight percent) during both ovalbumin (OVA)-induced sensitization and challenging periods (days −2-19), during the sensitization period (days −2-11) or challenge period (days 13-19). Nitroxide-containing chow were prepared by dissolving 500 grams chow in a minimum volume of water containing 5 grams nitroxide and 5 grams commercial chicken soup powder, preparing the chow and drying it at 37° C. (animals were reluctant to eat nitroxide-containing chow until chicken soup powder was added).
(§1) 3-CP was also administered using 3 daily intraperitoneal (IP) injections (200 μl, 0.15 M, ˜300 mg/kg) 0.5 hour prior to the challenge with OVA aerosol, or by nasal instillation (50 μl, 0.3 M, ˜150 mg/kg) twice a day 0.5 hour prior to the challenge with OVA aerosol and 6 hours later without exceeding its maximally tolerated dose, which has been previously established to be 300-500 mg/kg. Both 3-CP and TPL were non-toxic when administered orally or via IP injection to untreated OVA-challenged mice for 22 days.

[2] = Toxicity / maximally tolerated dose in mice; assay type: in vivo; conditions: administered orally or via IP injection to untreated OVA-challenged mice for 22 days
Procedure: as §1

[3] = tested on: ovalbumin-induced murine model of asthma; assay: Lung resistance / airway hyper-responsiveness to methacholine in OVA asthma model; assay type: in vivo, BALB/c mice
Procedure: All experimental procedures were carried out in accordance with the NIH Guidelines for the Care and Use of Laboratory Animals. Specific pathogen-free (SPF) male BALB/c mice (6-7 weeks of age, 18-22 grams), routinely screened serologically for relevant respiratory pathogens, were maintained in an animal housing facility for 1 week before use and given access to food and water ad libitum. Animals were randomly assigned to the indicated experimental groups, and sensitized with two intraperitoneal (IP) injections (20 μg ovalbumin (OVA) emulsified in 2 mg aluminum hydroxide (an adjuvant) in 200 μl phosphate buffer saline (PBS), pH 7.4), on days 1 and 10.
After another week, the animals were challenged by exposure to ovalbumin (OVA) aerosol (1%, w/v, in PBS) for 30 minutes each day on days 17, 18 and 19, in order to elicit an inflammatory reaction in the lungs characterized by airway hyper-responsiveness (AHR), an influx of inflammatory cells (particularly eosinophils), and increased pulmonary levels of various cytokines and transforming growth factors, protein nitration and lipid peroxidation.
The features of allergic inflammation typically reached their peak a day or two after the final exposure. Mice were then subjected to one of the following treatments: (i) sham-sensitization plus challenge with PBS; (ii) positive control-sensitization plus challenge with OVA; (iii) sensitization plus challenge with OVA and various indicated treatments (e.g., with nitroxide or dexamethasone), including different modes (oral, IP, intranasal, inhalation), time windows (sensitization stage, challenge stage, both stages and after the last challenge), and doses of nitroxide administration.
(§2) One day after the final challenge, respiratory activity and airway hyper-responsiveness (AHR) of experimental animals were evaluated. Whole body plethysmographs for enhanced pause (Penh) measurements are often used for assessment of AHR. However, critics have questioned the validity of Penh measurements, which supposedly measure airway obstruction of live non-sedated mice, stating that it is likely to measure the distress of the animal rather than actual obstruction. […] In brief, mice were sedated with an intraperitoneal (IP) injection of xylazine hydrochloride and anaesthetized with IP injection of pentobarbital. Subsequently, the animals were tracheostomized using an 18 gauge cannula, ventilated with a FlexiVent™ apparatus (SCIREQ), and muscle paralysis was induced with pancuronium bromide. The mice were ventilated in a quasi-sinusoidal fashion with the following settings: a tidal volume of 10 ml/kg, maximum inflation pressure of […] (30 cm H2O), a positive end expiratory pressure (PEEP) of 3 millibar and a frequency of 150 per minute. Following an equilibration period of 3 minutes of tidal ventilation, two lung inflations to a transrespiratory pressure of 2.5 millibar were performed and baseline measurements were taken. Airway hyper-responsiveness (AHR) was determined by aerosolizing increasing concentrations of methacholine. After baseline determination of airway resistance, mice were challenged with 0 to 64 mg/mL methacholine nebulized directly into the ventilatory circuit using an AeroNeb™ Lab nebulizer system (SCIREQ). Two models of respiratory mechanics were used to assess lung resistance: a linear 1st-order single compartment model and a constant-phase model. All data points were collected with FlexiVent™ software (SCIREQ). […]

[4] = tested on: bleomycin-induced pulmonary fibrosis; assay: Lung resistance in bleomycin pulmonary fibrosis model; assay type: in vivo, mice; conditions: 3-CP 150 mg/kg daily intranasal, 14 days, 64 mg/ml methacholine, FIG. 17
Procedure: as §2, with “Following an equilibration period of 3 minutes of tidal ventilation, two lung inflations to a transrespiratory pressure of 2.5 millibar were performed and baseline measurements were taken.” left out, “methacholine.” for “methacholine. After baseline determination of airway resistance, mice were challenged with 0 to 64 mg/mL methacholine nebulized directly into the ventilatory circuit using an AeroNeb™ Lab nebulizer system (SCIREQ). Two models of respiratory mechanics were used to assess lung resistance: a linear 1st-order single compartment model and a constant-phase model. All data points were collected with FlexiVent™ software (SCIREQ).”
The effect of 3-CP on bleomycin-induced inflammation was evaluated by determining lung resistance, total inflammatory cell count, and TGF-β1 levels, according to procedures described hereinabove.

[5] = previously established; cited from earlier work
[6] = nasal instillation (50 μL, 0.3 M), FIG. 2
[7] = oral administration (1 weight percent nitroxide in chow), FIG. 1
[8] = stated after the oral administration data
[9] = oral, 1 weight percent in chow, FIG. 3

In the case of `CC1(C)CC(C(N)=O)C(C)(C)N1[O]` (centres unmarked) [3-CP, 3-Carbamoyl-2,2,5,5-tetramethyl-pyrrolidin-1-oxyl], the “residual concentration of the respective hydroxylamine compared with the nitroxide” value ([1]; data not shown) is reported as “higher than those of the therapeutically active nitroxide free radical”, the “absolute concentration in lung tissue relative to blood” value [1, 6] is reported as “about twice the concentration in the blood” and the “half-life of reduction/clearance from blood and lung tissue” value [1, 6] is reported as “about 80 minutes”. For the same molecule, the “time course of residual concentration in blood and lung tissue” value [1, 6] was “decreased exponentially with time”, the “blood concentration, 3-CP compared with TPL” value [1, 7] was “higher than TPL blood concentrations” and the “residual concentration of nitroxide in blood” value [1, 7] was “detectable levels”. The “residual concentration in the lungs compared with other organs” value [1, 8] was “significantly higher than in the heart, spleen, liver, kidney and brain”, the “residual concentration in the lungs relative to that in the blood” value [1, 8] was “about 65%” and the toxicity [2] was “non-toxic”. For the same molecule, the “lung resistance, oral 3-CP in both periods compared with other regimens” value ([3]; oral 1 weight percent in chow during sensitization and challenge periods, FIG. 6) was “more effective than IP injection or intranasal instillation of 3-CP, oral administration of 3-CP during the sensitization period or challenge period alone, or treatment with dexamethasone”, the “effect on methacholine-induced increase in lung resistance” value [3, 9] was “suppressed methacholine-induced increase in lung resistance” and the “lung resistance suppression, 3-CP compared with TPL” value [3, 9] was “considerably more effective than TPL”. For the same molecule, the “effect on bleomycin-induced increase in lung resistance” value [4] was “completely reversed” and the maximally tolerated dose [5] was 300 to 500 mg/kg.

Reference: patent publication US10441568B2, “Nitroxide radicals for the treatment of diseases of the respiratory tract” (priority 2015, dated 2019)
